Read-outs that look alike come from different tables or passages of the source.
Tests used:
in vitro [1] = experiment: in vitro; set-up: species or system HB2, HEK293; details: human, ccd841 cells
in vitro [2] = experiment: in vitro; set-up: species or system HB2, CCD841; details: human, hek293 cells
in vitro [3] = experiment: in vitro; set-up: species or system CCD841, HEK293; details: human, hb2 cells, read-out: HB-2 Cells Viability (%)
OTUB2 (OTUB2A) = biological target: T1, OTUB2 (OTUB2A) (Homo sapiens, UniProt Q96DC9); set-up: Intact protein LC/MS covalent labelling, fragments in pools of five, 200 uM each, 4 °C; details: 24 h, 4 °C, pool of five; 200 µM; covalent
T1 construct: full length residues 1-234, E. coli BL21(DE3)-R3, His tag removed by TEV, construct 27312 Da
T1 sequence (Q96DC9 1-234): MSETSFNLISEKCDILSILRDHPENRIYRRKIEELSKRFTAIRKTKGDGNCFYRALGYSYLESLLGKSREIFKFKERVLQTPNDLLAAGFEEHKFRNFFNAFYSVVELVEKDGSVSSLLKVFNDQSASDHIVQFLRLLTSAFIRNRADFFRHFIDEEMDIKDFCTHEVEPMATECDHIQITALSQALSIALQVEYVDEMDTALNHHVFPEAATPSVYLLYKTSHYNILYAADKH

BSA = biological target: T2, BSA (Bos taurus, UniProt P02769); set-up: Intact protein LC/MS covalent labelling, fragments in pools of five, 200 uM each, 4 °C; details: 24 h, 4 °C, pool of five; 200 µM; covalent
T2 construct: gene ALB
T2 sequence (P02769 whole entry, the tested form may be a part): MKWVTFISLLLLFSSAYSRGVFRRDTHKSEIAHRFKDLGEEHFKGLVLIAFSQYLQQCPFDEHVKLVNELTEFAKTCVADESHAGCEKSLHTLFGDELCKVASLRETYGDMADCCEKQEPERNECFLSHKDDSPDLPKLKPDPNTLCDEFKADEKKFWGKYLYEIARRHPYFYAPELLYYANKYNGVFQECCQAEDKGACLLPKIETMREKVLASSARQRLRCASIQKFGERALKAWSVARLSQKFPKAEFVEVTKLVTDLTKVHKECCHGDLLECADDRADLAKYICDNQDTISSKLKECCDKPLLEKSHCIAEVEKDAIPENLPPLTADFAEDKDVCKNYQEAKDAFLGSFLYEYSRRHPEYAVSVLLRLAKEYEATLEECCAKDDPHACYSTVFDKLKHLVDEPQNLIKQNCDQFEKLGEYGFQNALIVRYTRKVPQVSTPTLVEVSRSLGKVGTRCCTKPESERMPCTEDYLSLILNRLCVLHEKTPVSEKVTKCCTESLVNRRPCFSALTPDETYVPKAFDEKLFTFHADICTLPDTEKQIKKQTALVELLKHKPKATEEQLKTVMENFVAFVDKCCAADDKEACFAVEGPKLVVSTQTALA

PCAF = biological target: T3, PCAF (Homo sapiens, UniProt Q92831); set-up: Intact protein LC/MS covalent labelling, fragments in pools of five, 200 uM each, 4 °C; details: 24 h, 4 °C, pool of five; 200 µM; covalent
T3 construct: gene KAT2B
T3 sequence (Q92831 whole entry, the tested form may be a part): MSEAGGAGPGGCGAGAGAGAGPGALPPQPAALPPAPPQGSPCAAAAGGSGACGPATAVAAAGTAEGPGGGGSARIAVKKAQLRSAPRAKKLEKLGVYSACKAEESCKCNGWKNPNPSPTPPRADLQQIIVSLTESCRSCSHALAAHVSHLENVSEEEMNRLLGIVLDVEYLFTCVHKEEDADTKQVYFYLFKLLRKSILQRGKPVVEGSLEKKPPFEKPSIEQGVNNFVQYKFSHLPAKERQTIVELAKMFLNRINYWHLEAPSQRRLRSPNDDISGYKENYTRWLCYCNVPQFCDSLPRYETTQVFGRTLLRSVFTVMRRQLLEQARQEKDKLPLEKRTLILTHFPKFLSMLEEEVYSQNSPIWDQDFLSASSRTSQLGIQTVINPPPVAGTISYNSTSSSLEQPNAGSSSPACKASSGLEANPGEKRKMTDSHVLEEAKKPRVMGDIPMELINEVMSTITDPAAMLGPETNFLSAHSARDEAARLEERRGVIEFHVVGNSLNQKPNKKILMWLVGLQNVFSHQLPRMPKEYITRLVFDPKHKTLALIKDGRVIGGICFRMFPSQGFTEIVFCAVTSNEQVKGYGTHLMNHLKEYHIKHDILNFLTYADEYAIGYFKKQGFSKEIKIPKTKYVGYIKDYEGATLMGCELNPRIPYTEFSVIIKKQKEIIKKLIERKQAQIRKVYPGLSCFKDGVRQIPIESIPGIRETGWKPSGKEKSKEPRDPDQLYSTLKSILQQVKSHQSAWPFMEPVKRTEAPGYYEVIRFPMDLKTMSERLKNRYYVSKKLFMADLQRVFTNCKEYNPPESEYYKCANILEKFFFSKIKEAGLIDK

NUDT7 = biological target: T4, NUDT7 (Homo sapiens, UniProt P0C024); set-up: Intact protein LC/MS covalent labelling, fragments in pools of five, 200 uM each, 4 °C; details: 24 h, 4 °C, pool of five; 200 µM; covalent
T4 construct: residues 14-235, E. coli, pNIC28-Bsa4, N-terminal His6 tag removed by TEV, construct 26672 Da
T4 sequence (P0C024 14-235): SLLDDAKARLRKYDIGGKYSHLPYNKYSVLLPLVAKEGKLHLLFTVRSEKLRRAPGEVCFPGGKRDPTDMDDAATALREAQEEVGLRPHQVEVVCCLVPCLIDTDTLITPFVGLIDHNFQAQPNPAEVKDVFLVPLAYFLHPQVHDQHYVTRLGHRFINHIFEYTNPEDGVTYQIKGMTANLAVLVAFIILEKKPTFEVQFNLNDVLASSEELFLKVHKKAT

NNMT (hNNMT) = biological target: T5, NNMT (hNNMT) (Homo sapiens, UniProt P40261); set-up: Intact protein LC/MS covalent labelling, fragments in pools of five, 200 uM each, 4 °C; details: 24 h, 4 °C, pool of five; 200 µM; covalent
T5 construct: wild type, N-terminal His6 tag kept (no cleavage described), E. coli, construct 31248 Da
T5 sequence (P40261 1-264): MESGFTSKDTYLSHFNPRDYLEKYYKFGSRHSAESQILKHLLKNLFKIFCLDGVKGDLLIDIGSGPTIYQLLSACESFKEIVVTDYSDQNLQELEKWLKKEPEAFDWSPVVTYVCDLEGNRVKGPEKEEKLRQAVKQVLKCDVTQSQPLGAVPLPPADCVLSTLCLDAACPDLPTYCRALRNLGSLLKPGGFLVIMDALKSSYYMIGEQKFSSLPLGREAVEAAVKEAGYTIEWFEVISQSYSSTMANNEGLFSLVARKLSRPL

| Compound | OTUB2 (OTUB2 (OTUB2A)) | BSA (BSA) | PCAF (PCAF) | NUDT7 (NUDT7) | NNMT (NNMT (hNNMT)) | viability at 48 h, 10 µM (in vitro [1]) [%] | viability at 48 h, 10 µM (in vitro [2]) [%] | viability at 48 h, 10 µM (in vitro [3]) [%] |
| --- | --- | --- | --- | --- | --- | --- | --- | --- |
| C=CC(=O)N1CCCC(n2nc(C)nc2C)C1 (centres unmarked) [PCM-0102479] | 0 | 0 | 0 | 0 | 0 | 111 | 98.5 | 101 |
| O=C(CCl)NN1C(=O)NC2(CCCCC2)C1=O [PCM-0102424] | 0 | 0 | 0 | 0.06 | 0 | 94.7 | 103 | 95 |
| C=CC(=O)N1CCC(c2noc(C3CC3)n2)CC1 [PCM-0102810] | 0 | 0 | 0 | 0.06 | 0 | 103 | 94.1 | 103 |
| CC(C)(C)NC(=O)CN1CCN(C(=O)CCl)CC1.Cl [PCM-0102302] | 0.13 | 0 | 0 | 0.08 | 0.24 | 98.9 | 84.4 | 97 |
| CN(Cc1ccc(Cl)s1)C(=O)CCl [PCM-0102898] | 0 | 0 | 0 | 0.29 | 0.47 | 46.5 | 7.8 | 11 |
| C=CC(=O)N1CC(=O)NC2CCCCC21 (centres unmarked) [PCM-0102717] | 0 | 0 | 0 | 0 | 0 | 105 | 112 | 100 |
| CN(CCC#N)C(=O)CCl [PCM-0102712] | 0 | 0 | 0 | 0 | 0.32 | 79.6 | 80.3 | 89.4 |
| CC1CCC2(CC1)NC(=O)N(NC(=O)CCl)C2=O (centres unmarked) [PCM-0102666] | 0 | 0 | 0 | 0 | 0 | 79.9 | 99.9 | 97.3 |
| O=C(CCl)N1CCN(Cc2ccc3c(c2)OCCO3)CC1 [PCM-0102386] | 0 | 0 | 0 | 0 | 0 | 75.9 | 39.1 | 42.2 |
| Cl.O=C(CCl)N1CCN(Cc2ccc3c(c2)CCO3)CC1 [PCM-0102814] | 0 | 0.11 | 0 | 0 | 0.24 | 58.5 | 37.6 | 22.2 |
| O=C(CCl)NC(=O)Cc1ccccc1 [PCM-0102902] | 0 | 0 | 0 | 0 | 0 | 117 | 116 | 104 |
| O=C(CCl)N1CCOCC1 [PCM-0102749] | 0 | 0 | 0 | 0 | 0 | 109 | 97.6 | 98.7 |
| CN(Cc1ccc(Br)cc1)C(=O)CCl [PCM-0102401] | 0 | 0 | 0 | 0.58 | 0.53 | 32.1 | 7.3 | 6.8 |
| Cl.O=C(CCl)N1CCN(Cc2ccc3c(c2)OCO3)CC1 [PCM-0102397] | 0 | 0 | 0 | 0 | 0 | 67.3 | 31.7 | 20.7 |
| CC(C)(C)c1ccc(C(=O)NNC(=O)CCl)cc1 [PCM-0102355] | 0.66 | 0 | 0 | 0 | 0 | 44.3 | 53.7 | 48.1 |
| Cl.O=C(CCl)N1CCN(Cc2ccco2)CC1 [PCM-0103006] | 0 | 0 | 0 | 0 | 0 | 85 | 65.7 | 88.6 |
| O=C(CCl)N1CCN(S(=O)(=O)c2ccccc2F)CC1 [PCM-0102281] | 0 | 0 | 0 | 0.14 | 0 | 62.6 | 9.5 | 7.1 |

Continued, in another order:

| OTUB2 (OTUB2 (OTUB2A)) | BSA (BSA) | PCAF (PCAF) | NUDT7 (NUDT7) | NNMT (NNMT (hNNMT)) | Compound | viability at 48 h, 10 µM (in vitro [1]) [%] | viability at 48 h, 10 µM (in vitro [2]) [%] | viability at 48 h, 10 µM (in vitro [3]) [%] |
| --- | --- | --- | --- | --- | --- | --- | --- | --- |
| 0.2 | 0 | 0 | 0 | 0 | O=C(CCl)Nc1ccccc1Cl [PCM-0102152] | 78.5 | 76.1 | 75.4 |
| 0.43 | 0 | 0 | 0.1 | 0.27 | N#CCc1ccc(NC(=O)CCl)cc1 [PCM-0102148] | 32.2 | 2.1 | 11.8 |
| 0 | 0 | 0 | 0 | 0.13 | CC(C)(C)c1nnc(NC(=O)CCl)s1 [PCM-0102736] | 67.5 | 81.5 | 80.1 |
| 0 | 0 | 0 | 0.26 | 0.46 | Cc1cc(C)c(NC(=O)CCl)c(Cl)c1 [PCM-0102994] | 73.1 | 74.1 | 94 |
| 0 | 0 | 0 | 0.18 | 0.32 | NC(=O)c1ccsc1NC(=O)CCl [PCM-0102314] | 74.4 | 33.7 | 58.5 |
| 0.13 | 0 | 0 | 0 | 0 | O=C(CCl)Nc1ccccc1N1CCCC1=O [PCM-0102375] | 78 | 51.9 | 79.6 |
| 0 | 0 | 0 | 0 | 0 | O=C(CCl)Nc1ccc(C(=O)O)cc1 [PCM-0102400] | 72.5 | 112 | 84.1 |
| 0.51 | 0 | 0 | 0 | 0 | Cc1csc(CC(=O)NNC(=O)CCl)n1.Cl [PCM-0102095] | 79 | 81.9 | 93.3 |

Reference: publication PMC6556873, “Rapid Covalent-Probe Discovery by Electrophile-Fragment Screening” (Journal of the American Chemical Society, 2019)
